From ChEMBL document CHEMBL4346735, “Discovery and pharmacological evaluation of indole derivatives as potent and selective RORγt inverse agonist for multiple autoimmune conditions” (Bioorg Med Chem Lett, 2019)

Test system: not listed separately
Experiment: Metabolic stability in mouse liver microsomes assessed as parent compound remaining at 1 uM preincubated for 5 mins followed by NADPH addition after 30 mins by LC-MS/MS analysis
Type: ADME, Microsome
Settings: read-out: Stability
`O=C(O)c1ccc(-n2cc(C(=O)c3c(Cl)cccc3C(F)(F)F)c3cccnc32)c(F)c1` showed a remaining at 0.5 h, 1 µM of 87%.
With `O=C(O)c1ccc(-n2cc(C(=O)c3c(Cl)cccc3C(F)(F)F)c3c(F)cccc32)c(F)c1` the remaining at 0.5 h, 1 µM was 78%.

Test system: not listed separately
Experiment: Metabolic stability in rat liver microsomes assessed as parent compound remaining at 1 uM preincubated for 5 mins followed by NADPH addition after 30 mins by LC-MS/MS analysis
Type: ADME, Microsome
Settings: read-out: Stability
`O=C(O)c1ccc(-n2cc(C(=O)c3c(Cl)cccc3C(F)(F)F)c3cccnc32)c(F)c1` showed a remaining at 0.5 h, 1 µM of 73%.
For `O=C(O)c1ccc(-n2cc(C(=O)c3c(Cl)cccc3C(F)(F)F)c3c(F)cccc32)c(F)c1`, the remaining at 0.5 h, 1 µM was 76%.

Target: Cytochrome P450 2C9 (Homo sapiens, UniProt P11712)
Sequence (P11712 whole entry): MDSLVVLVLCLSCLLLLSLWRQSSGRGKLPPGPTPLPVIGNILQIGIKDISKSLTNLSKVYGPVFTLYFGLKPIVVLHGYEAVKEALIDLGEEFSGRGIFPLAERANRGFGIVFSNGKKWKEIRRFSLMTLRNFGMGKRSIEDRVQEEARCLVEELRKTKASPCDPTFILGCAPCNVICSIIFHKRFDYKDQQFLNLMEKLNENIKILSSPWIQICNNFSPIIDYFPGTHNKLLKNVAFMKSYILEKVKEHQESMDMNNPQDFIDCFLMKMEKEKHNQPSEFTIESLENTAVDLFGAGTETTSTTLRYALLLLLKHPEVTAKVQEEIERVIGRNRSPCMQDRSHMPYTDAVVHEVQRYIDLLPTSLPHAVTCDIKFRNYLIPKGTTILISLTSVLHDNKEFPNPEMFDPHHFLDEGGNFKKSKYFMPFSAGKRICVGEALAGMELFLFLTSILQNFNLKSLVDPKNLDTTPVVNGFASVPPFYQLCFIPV
Experiment: Inhibition of CYP2C9 in human liver microsomes using diclofenac as substrate preincubated for 5 mins followed by NADPH addition measured after 10 mins by LC-MS/MS analysis
Settings: not given
With `O=C(O)c1ccc(-n2cc(C(=O)c3c(Cl)cccc3C(F)(F)F)c3cccnc32)c(F)c1` the IC50 was 17.2 µM.
Compound `O=C(O)c1ccc(-n2cc(C(=O)c3c(Cl)cccc3C(F)(F)F)c3c(F)cccc32)c(F)c1` has an IC50 of 20.3 µM.

Test system: not listed separately
Experiment: Cmax in mouse at 10 mg/kg, po
Type: ADME, organism-based
Parameters: dose 10 mg/kg, route oral
Settings: in vivo
With `O=C(O)c1ccc(-n2cc(C(=O)c3c(Cl)cccc3C(F)(F)F)c3cccnc32)c(F)c1` the Cmax was 12.1 µM.
Compound `O=C(O)c1ccc(-n2cc(C(=O)c3c(Cl)cccc3C(F)(F)F)c3c(F)cccc32)c(F)c1` has a Cmax of 17.5 µM.

Target: T1, Nuclear receptor ROR-gamma (Homo sapiens, UniProt P51449)
T1 sequence (P51449 whole entry): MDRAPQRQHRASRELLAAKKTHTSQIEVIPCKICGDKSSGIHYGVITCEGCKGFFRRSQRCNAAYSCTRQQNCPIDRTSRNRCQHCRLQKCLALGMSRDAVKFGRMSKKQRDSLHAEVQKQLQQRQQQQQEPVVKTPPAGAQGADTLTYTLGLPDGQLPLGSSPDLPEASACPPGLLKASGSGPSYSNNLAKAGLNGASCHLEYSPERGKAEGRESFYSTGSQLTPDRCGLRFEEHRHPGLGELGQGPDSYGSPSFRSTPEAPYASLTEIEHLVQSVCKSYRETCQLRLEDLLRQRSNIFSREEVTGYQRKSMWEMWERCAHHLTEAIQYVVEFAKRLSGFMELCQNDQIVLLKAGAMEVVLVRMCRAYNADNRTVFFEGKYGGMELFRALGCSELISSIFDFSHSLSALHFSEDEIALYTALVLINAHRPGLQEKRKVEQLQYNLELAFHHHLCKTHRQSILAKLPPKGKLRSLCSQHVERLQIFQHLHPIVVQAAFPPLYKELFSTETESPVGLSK
Experiment: Transactivation of recombinant GAL4-DBD fused RORgammat LBD (unknown origin) expressed in HEK293T cells incubated for 18 to 24 hrs by dual-Glo luciferase assay
Type: cell-based
Settings: not given
Work on `O=C(O)c1ccc(-n2cc(C(=O)c3c(Cl)cccc3C(F)(F)F)c3cccnc32)c(F)c1` yielded an IC50 of 0.015 µM.
`O=C(O)c1ccc(-n2cc(C(=O)c3c(Cl)cccc3C(F)(F)F)c3c(F)cccc32)c(F)c1` showed an IC50 of 0.016 µM.

Target: Cytochrome P450 2C19 (Homo sapiens, UniProt P33261)
Sequence (P33261 whole entry): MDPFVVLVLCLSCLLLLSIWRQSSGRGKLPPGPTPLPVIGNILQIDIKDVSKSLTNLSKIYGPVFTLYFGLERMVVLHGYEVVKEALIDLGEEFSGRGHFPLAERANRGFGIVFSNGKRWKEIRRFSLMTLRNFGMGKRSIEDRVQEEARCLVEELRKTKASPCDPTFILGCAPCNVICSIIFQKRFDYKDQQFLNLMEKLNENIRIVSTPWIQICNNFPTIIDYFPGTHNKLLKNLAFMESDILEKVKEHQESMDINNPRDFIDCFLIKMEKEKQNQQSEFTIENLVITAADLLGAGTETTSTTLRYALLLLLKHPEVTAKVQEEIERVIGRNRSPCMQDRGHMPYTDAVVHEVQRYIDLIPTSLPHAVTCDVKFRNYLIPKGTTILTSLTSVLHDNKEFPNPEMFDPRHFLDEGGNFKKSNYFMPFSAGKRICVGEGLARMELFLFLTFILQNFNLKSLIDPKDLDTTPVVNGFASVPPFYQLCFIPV
Experiment: Inhibition of CYP2C19 in human liver microsomes using (S)-mephenytoin as substrate preincubated for 5 mins followed by NADPH addition measured after 40 mins by LC-MS/MS analysis
Settings: not given
For `O=C(O)c1ccc(-n2cc(C(=O)c3c(Cl)cccc3C(F)(F)F)c3cccnc32)c(F)c1`, the IC50 was over 50 µM.
In the case of `O=C(O)c1ccc(-n2cc(C(=O)c3c(Cl)cccc3C(F)(F)F)c3c(F)cccc32)c(F)c1`, the IC50 is reported as over 50 µM.

Test system: not listed separately
Experiment: Half life in mouse at 3 mg/kg, iv
Type: ADME, organism-based
Settings: in vivo
`O=C(O)c1ccc(-n2cc(C(=O)c3c(Cl)cccc3C(F)(F)F)c3cccnc32)c(F)c1` gave a half-life of 3.2 h.
`O=C(O)c1ccc(-n2cc(C(=O)c3c(Cl)cccc3C(F)(F)F)c3c(F)cccc32)c(F)c1` showed a half-life of 2.7 h.

Test system: not listed separately
Experiment: Clearance in mouse at 3 mg/kg, iv
Type: ADME, organism-based
Settings: in vivo
`O=C(O)c1ccc(-n2cc(C(=O)c3c(Cl)cccc3C(F)(F)F)c3cccnc32)c(F)c1` gave a clearance of 11 mL/min/kg.
For `O=C(O)c1ccc(-n2cc(C(=O)c3c(Cl)cccc3C(F)(F)F)c3c(F)cccc32)c(F)c1`, the clearance was 4.6 mL/min/kg.

Test system: not listed separately
Experiment: Oral bioavailability in mouse at 10 mg/kg
Type: ADME, organism-based
Settings: in vivo
Compound `O=C(O)c1ccc(-n2cc(C(=O)c3c(Cl)cccc3C(F)(F)F)c3cccnc32)c(F)c1` has a bioavailability of 100%.
`O=C(O)c1ccc(-n2cc(C(=O)c3c(Cl)cccc3C(F)(F)F)c3c(F)cccc32)c(F)c1` gave a bioavailability of 62%.

Test system: not listed separately
Experiment: Volume of distribution at steady state in mouse at 3 mg/kg, iv
Type: ADME, organism-based
Settings: in vivo, read-out: Vdss
Compound `O=C(O)c1ccc(-n2cc(C(=O)c3c(Cl)cccc3C(F)(F)F)c3cccnc32)c(F)c1` has a Vd of 2.4 L/kg.
`O=C(O)c1ccc(-n2cc(C(=O)c3c(Cl)cccc3C(F)(F)F)c3c(F)cccc32)c(F)c1` gave a Vd of 1 L/kg.

Target: T2, Cytochrome P450 1A2 (Homo sapiens, UniProt P05177)
T2 sequence (P05177 whole entry): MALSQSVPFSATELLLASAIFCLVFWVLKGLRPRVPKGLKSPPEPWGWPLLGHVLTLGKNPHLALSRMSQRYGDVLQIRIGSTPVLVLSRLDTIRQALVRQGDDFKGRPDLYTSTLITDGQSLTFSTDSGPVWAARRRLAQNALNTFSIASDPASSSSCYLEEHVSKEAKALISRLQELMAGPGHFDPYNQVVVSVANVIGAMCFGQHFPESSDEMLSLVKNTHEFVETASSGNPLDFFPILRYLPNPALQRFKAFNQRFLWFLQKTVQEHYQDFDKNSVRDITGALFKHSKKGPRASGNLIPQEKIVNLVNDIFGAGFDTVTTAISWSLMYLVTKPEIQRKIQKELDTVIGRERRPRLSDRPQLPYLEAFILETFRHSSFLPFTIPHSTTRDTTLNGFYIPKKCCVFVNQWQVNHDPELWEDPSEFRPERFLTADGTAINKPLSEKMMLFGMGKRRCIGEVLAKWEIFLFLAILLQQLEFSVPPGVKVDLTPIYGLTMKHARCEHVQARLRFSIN
Experiment: Inhibition of CYP1A2 in human liver microsomes using phenacetin as substrate preincubated for 5 mins followed by NADPH addition measured after 10 mins by LC-MS/MS analysis
Settings: not given
With `O=C(O)c1ccc(-n2cc(C(=O)c3c(Cl)cccc3C(F)(F)F)c3cccnc32)c(F)c1` the IC50 was over 50 µM.
Work on `O=C(O)c1ccc(-n2cc(C(=O)c3c(Cl)cccc3C(F)(F)F)c3c(F)cccc32)c(F)c1` yielded an IC50 of over 50 µM.

Target: Cytochrome P450 3A4 (Homo sapiens, UniProt P08684)
Sequence (P08684 whole entry): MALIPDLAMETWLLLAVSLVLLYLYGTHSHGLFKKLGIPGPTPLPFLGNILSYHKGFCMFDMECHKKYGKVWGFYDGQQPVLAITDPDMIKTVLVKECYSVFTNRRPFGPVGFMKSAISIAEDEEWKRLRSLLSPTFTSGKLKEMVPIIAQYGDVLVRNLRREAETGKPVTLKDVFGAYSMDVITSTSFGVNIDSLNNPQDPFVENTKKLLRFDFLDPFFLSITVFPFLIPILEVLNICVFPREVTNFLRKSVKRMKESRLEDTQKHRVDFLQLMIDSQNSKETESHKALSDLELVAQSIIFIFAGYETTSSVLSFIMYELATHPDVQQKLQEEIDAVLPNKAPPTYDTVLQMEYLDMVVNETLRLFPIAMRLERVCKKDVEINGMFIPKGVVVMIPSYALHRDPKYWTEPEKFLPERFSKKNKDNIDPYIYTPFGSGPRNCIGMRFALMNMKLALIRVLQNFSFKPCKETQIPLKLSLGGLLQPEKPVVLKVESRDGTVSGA
Experiment: Inhibition of CYP3A4 in human liver microsomes using testosterone as substrate preincubated for 5 mins followed by NADPH addition measured after 10 mins by LC-MS/MS analysis
Settings: not given
With `O=C(O)c1ccc(-n2cc(C(=O)c3c(Cl)cccc3C(F)(F)F)c3cccnc32)c(F)c1` the IC50 was over 50 µM.

Target: Cytochrome P450 2D6 (Homo sapiens, UniProt P10635)
Sequence (P10635 whole entry): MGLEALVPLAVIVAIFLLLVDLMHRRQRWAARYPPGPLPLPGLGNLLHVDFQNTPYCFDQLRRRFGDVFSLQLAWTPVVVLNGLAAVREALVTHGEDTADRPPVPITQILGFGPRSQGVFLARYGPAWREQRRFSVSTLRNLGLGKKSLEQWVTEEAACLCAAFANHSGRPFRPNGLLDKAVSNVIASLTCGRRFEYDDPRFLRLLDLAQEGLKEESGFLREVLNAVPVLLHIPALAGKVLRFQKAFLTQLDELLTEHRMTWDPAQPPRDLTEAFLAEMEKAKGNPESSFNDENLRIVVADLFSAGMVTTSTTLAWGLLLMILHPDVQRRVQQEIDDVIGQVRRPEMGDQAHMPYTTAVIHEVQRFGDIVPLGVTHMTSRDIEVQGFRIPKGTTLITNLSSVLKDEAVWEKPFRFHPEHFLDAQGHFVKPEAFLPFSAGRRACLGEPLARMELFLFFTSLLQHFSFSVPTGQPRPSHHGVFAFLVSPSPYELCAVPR
Experiment: Inhibition of CYP2D6 in human liver microsomes using dextromethorphan as substrate preincubated for 5 mins followed by NADPH addition measured after 10 mins by LC-MS/MS analysis
Settings: not given
Compound `O=C(O)c1ccc(-n2cc(C(=O)c3c(Cl)cccc3C(F)(F)F)c3cccnc32)c(F)c1` has an IC50 of over 50 µM.
In the case of `O=C(O)c1ccc(-n2cc(C(=O)c3c(Cl)cccc3C(F)(F)F)c3c(F)cccc32)c(F)c1`, the IC50 is reported as over 50 µM.

Test system: not listed separately
Experiment: Metabolic stability in human liver microsomes assessed as parent compound remaining at 1 uM preincubated for 5 mins followed by NADPH addition after 30 mins by LC-MS/MS analysis
Type: ADME, Microsome
Settings: read-out: Stability
Compound `O=C(O)c1ccc(-n2cc(C(=O)c3c(Cl)cccc3C(F)(F)F)c3cccnc32)c(F)c1` has a remaining at 0.5 h, 1 µM of 100%.
With `O=C(O)c1ccc(-n2cc(C(=O)c3c(Cl)cccc3C(F)(F)F)c3c(F)cccc32)c(F)c1` the remaining at 0.5 h, 1 µM was 100%.

Test system: not listed separately
Experiment: Tmax in mouse at 10 mg/kg, po
Type: ADME, organism-based
Settings: in vivo
`O=C(O)c1ccc(-n2cc(C(=O)c3c(Cl)cccc3C(F)(F)F)c3cccnc32)c(F)c1` gave a Tmax of 0.5 h.
With `O=C(O)c1ccc(-n2cc(C(=O)c3c(Cl)cccc3C(F)(F)F)c3c(F)cccc32)c(F)c1` the Tmax was 0.5 h.

Test system: not listed separately
Experiment: AUC (0 to 24 hrs) in mouse at 10 mg/kg, po
Type: ADME, organism-based
Parameters: dose 10 mg/kg, time < 24 hr, route oral
Settings: in vivo
For `O=C(O)c1ccc(-n2cc(C(=O)c3c(Cl)cccc3C(F)(F)F)c3cccnc32)c(F)c1`, the AUC(0-t) at 24 h was 35.1 µM·h.
With `O=C(O)c1ccc(-n2cc(C(=O)c3c(Cl)cccc3C(F)(F)F)c3c(F)cccc32)c(F)c1` the AUC(0-t) at 24 h was 46.5 µM·h.

Target: T3, Nuclear receptor ROR-alpha (Homo sapiens, UniProt P35398)
T3 sequence (P35398 whole entry): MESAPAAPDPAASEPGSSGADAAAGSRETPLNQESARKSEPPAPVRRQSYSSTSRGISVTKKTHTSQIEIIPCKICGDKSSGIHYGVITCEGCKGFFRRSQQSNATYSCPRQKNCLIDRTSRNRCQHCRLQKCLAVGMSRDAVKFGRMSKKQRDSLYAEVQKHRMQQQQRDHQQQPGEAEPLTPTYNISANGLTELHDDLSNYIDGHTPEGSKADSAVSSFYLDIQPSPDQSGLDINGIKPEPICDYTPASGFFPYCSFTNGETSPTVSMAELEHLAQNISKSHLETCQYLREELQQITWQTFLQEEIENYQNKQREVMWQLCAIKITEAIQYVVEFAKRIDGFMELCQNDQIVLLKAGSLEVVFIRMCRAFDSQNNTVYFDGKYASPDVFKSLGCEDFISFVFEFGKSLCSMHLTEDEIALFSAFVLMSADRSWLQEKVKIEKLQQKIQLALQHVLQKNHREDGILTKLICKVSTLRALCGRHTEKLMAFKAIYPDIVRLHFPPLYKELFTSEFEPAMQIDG
Experiment: Inhibition of GAL4-DBD fused RORalpha LBD (unknown origin) expressed in HEK293T cells
Type: cell-based
Settings: not given
`O=C(O)c1ccc(-n2cc(C(=O)c3c(Cl)cccc3C(F)(F)F)c3cccnc32)c(F)c1` gave an IC50 of over 30 µM.
With `O=C(O)c1ccc(-n2cc(C(=O)c3c(Cl)cccc3C(F)(F)F)c3c(F)cccc32)c(F)c1` the IC50 was over 30 µM.
